Biological target: human TRPV4 (Homo sapiens (Human), UniProt Q9HBA0)
Experiment: Test Example 1: measurement of TRPV4 inhibitory activity (Fluo 4-AM, FLIPR TETRA, 4α-PDD 1 μmol/L)
Format: cell-based
Conditions: hTRPV4/CHO cells; for IC50: 4α-PDD 1 μmol/L; for Ki: calculated from IC50 and 4α-PDD EC50
Protocol: For each compound, TRPV4 inhibitory activity was measured using cells.
(1) The TRPV4 inhibitory activity was measured using CHO-K1 cells stably expressing human TRPV4 (hTRPV4/CHO cells).
(2) In the day before the experimental day, frozen cell were thawed and washed with the culture medium (MEM-α, 10% FBS, 2 mmol/L GlutaMax, 50 unit Penicillin, 50 μg/mL Streptomycin). Then cells were suspended in the culture medium.
(3) The 384-well plates which hTRPV4/CHO cells were seeded at densities of 4000 cells/well in the culture medium and cultured in a CO2 incubator in the presence of 5% CO2 at 37° C. for overnight was used as assay plates.
(4) The assay plate was washed with assay buffer (Hanks, 20 mmol/L HEPES, 2.5 mmol/L probenecid, pH7.4), and the buffer were remained at 20 μL/well.
(5) 10 μl of dye loading buffer (9 μmol/L Fluo 4-AM, 0.09% Pluronic F-127/assay buffer) was added to each well, then the assay plate was incubated in a CO2 incubator in the presence of 5% CO2 at 37° C. for one hour. (final 3 μmol/L Fluo4-AM).
(6) The assay plate was washed with the assay buffer, and the buffers were remained at 20 μL/well. Then the assay plate was incubated for 10 min at room temperature.
(7) Diluted compound solution was dispensed to each well in the compound plate, and mixed with built-in Pipette and Mixer of the Fluorescence analysis system FLIPR TETRA (Molecular devices).
(8) After incubation for 5 min, 20 μL of 4α-PDD solution were applied to each well of assay plate and mixed with the FLIPR TETRA. (final 1 μmol/L 4α-PDD)
(9) The fluorescent intensity was measured with FLIPR TETRA system for 10 min from the point of time addition the compound solution, at Ex 470-495 nm, Em 515-575 nm wavelength.
TRPV4 inhibitory activity (IC50 value and Ki value) of a compound was evaluated according to the following procedure.
(10) In the presence of the compound, the difference between maximal and minimal of fluorescent intensity value for 5 min from just before addition of 4α-PDD solution was calculated, and it was referred as Max-Min value. Max-Min value of the Ruthenium Red at 20 μM was defined as 100% inhibitory activity, Max-Min value in the absence of the compound was defined as 0% inhibitory activity. The TRPV4 inhibitory activity of the compound was calculated by the following formula. (1−(Max-Min value of the compound−100% inhibitory activity)/(0% inhibitory activity−100% inhibitory activity))×100 (11) Inhibitory activity was calculated at 10 points with three fold serial dilution, in the final concentration of the compound from 10 μmmol/L to 0.5 nmol/L, the IC50 value was calculated by logistic approximation method. (12) In the absence of the compound, the fluorescent intensity was measured as the same method with 10, 1, 0.5, 0.2, and 0 μmol/L as final concentration of 4α-PDD. The difference of minimal and maximal fluorescent intensity value for 5 min from just before addition of 4α-PDD solution was calculated, and it was referred as Max-Min value. Max-Min value of the 4α-PDD at 10 μmol/L was defined as 100% activity, Max-Min value in the absence of 4α-PDD was defined as 0% activity. The TRPV4 activity of each concentration of 4α-PDD was calculated by the following formula. (Max-Min value of the each 4α-PDD concentration−0% activity)/(100% activity−0% activity))×100 (13) Effective activity was calculated in 5 concentrations of 4α-PDD the above. The EC50 value was calculated by logistic approximation method. The Ki value of a compound was calculated by the following formula. Ki (nmol/L)=IC50 value (nmol/L)/(1+[…] (test 4α-PDD concentration (nmol/L)/EC50 value (nmol/L))

Sequence of human TRPV4 (Q9HBA0 whole entry): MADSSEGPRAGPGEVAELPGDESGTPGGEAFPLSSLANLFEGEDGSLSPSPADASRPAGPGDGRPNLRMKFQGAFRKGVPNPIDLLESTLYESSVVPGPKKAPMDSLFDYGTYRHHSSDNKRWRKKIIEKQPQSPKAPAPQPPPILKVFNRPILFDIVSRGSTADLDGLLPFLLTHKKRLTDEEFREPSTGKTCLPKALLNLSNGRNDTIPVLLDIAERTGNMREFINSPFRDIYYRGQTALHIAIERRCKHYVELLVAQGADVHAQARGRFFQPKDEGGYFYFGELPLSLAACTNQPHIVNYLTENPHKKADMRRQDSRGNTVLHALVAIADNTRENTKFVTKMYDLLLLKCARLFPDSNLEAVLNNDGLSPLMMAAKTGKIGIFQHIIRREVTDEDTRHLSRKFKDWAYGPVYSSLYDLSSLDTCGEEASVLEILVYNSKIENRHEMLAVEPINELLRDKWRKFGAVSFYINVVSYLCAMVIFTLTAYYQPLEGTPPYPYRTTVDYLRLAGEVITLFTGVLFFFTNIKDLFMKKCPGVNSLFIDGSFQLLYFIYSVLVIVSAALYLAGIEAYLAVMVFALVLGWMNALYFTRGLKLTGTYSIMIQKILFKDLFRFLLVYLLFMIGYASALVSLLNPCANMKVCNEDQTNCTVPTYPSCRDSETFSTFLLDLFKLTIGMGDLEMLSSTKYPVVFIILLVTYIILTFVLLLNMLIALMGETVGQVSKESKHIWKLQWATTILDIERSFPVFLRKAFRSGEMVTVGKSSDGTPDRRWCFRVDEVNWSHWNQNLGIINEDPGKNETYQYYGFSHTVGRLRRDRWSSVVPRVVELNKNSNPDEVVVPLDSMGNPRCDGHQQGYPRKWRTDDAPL

Row | SMILES | IC50 [µM] | Ki [nM]
1 | CNC(=O)CCn1c(C(C)(C)C)cc(C(=O)Nc2cccc(C(F)(F)F)c2)c1C [Compound I-092] | 6.4 | 2400
2 | CNS(=O)(=O)CCn1c(C(C)(C)C)cc(C(=O)Nc2cccc(C(F)(F)F)c2)c1C [Compound I-094] | 6.1 | 2200
3 | Cc1c(C(=O)Nc2cccc(C(F)(F)F)c2)cc(C(C)(C)C)n1CCS(=O)(=O)N1CCNCC1 [Compound I-098] | 1.9 | 590
4 | Cc1c(C(=O)Nc2cccc(C(F)(F)F)c2)cc(C(C)(C)C)n1C1CCNCC1 [Compound I-099] | 5.9 | 2100
5 | CC(=O)N1CCC(n2c(C(C)(C)C)cc(C(=O)Nc3cccc(C(F)(F)F)c3)c2C)CC1 [Compound I-101] | 7.4 | 2600
6 | Cc1c(C(=O)Nc2cccc(C(F)(F)F)c2)cc(C(C)(C)C)n1C1CCN(S(C)(=O)=O)CC1 [Compound I-102] | 4.2 | 1500
7 | Cc1c(S(=O)(=O)NCc2cccc(C(F)(F)F)c2)cc(C(C)(C)C)n1CCCN1CCOCC1 [Compound I-104] | 7.7 | 2700
8 | Cc1c(C(=O)Nc2cccc(C(F)(F)F)c2)cc(C(C)(C)C)n1C1CCN(C)CC1 [Compound I-106] | 3.9 | 1200
9 | COC(=O)CN1CCC(n2c(C(C)(C)C)cc(C(=O)Nc3cccc(C(F)(F)F)c3)c2C)CC1 [Compound I-107] | 6.6 | 2100
10 | Cc1c(C(=O)Nc2cccc(C(F)(F)F)c2)cc(C(C)(C)C)n1C1CCN(C2CCNCC2)CC1 [Compound I-109] | 6.3 | 2300
11 | Cc1c(C(=O)Nc2cccc(C(F)(F)F)c2)cc(C(C)(C)C)n1C1CCN(CCO)CC1 [Compound I-110] | 6.6 | 2400
12 | Cc1c(C(=O)Nc2cccc(C(F)(F)F)c2)cc(C(C)(C)C)n1[C@H]1CC[C@H](N)CC1 [Compound I-111] | 4.1 | 1500
13 | CN[C@H]1CC[C@H](n2c(C(C)(C)C)cc(C(=O)Nc3cccc(C(F)(F)F)c3)c2C)CC1 [Compound I-112] | 5.6 | 1500
14 | Cc1c(C(=O)Nc2cccc(C(F)(F)F)c2)cc(C(C)(C)C)n1[C@H]1CC[C@H](N(C)C)CC1 [Compound I-113] | 5.8 | 1500
15 | Cc1c(C(=O)Nc2cccc(C(F)(F)F)c2)cc(C(C)(C)C)n1[C@H]1CC[C@H](NS(C)(=O)=O)CC1 [Compound I-114] | 8.7 | 2300
16 | Cc1c(C(=O)Nc2cccc(C(F)(F)F)c2)cc(C(C)(C)C)n1[C@H]1CC[C@@H](NS(C)(=O)=O)CC1 [Compound I-115] | 6 | 1600
17 | Cc1c(C(=O)Nc2cccc(C(F)(F)F)c2)cc(C(C)(C)C)n1[C@H]1CC[C@@H](N)CC1 [Compound I-116] | 5.3 | 1500
18 | CNCCCn1c(C(C)(C)C)cc(S(=O)(=O)Nc2cccc(C(F)(F)F)c2)c1C [Compound I-117] | 9.2 | 2500
19 | Cc1c(S(=O)(=O)Nc2cccc(C(F)(F)F)c2)cc(C(C)(C)C)n1CCCN1CCOCC1 [Compound I-118] | 9.2 | 2500
20 | Cc1c(C(=O)Nc2cccc(C(F)(F)F)c2)cc(C(C)(C)C)n1[C@H]1CC[C@@H](N(C)S(C)(=O)=O)CC1 [Compound I-120] | 3.5 | 1100
21 | Cc1c(-c2nc3ccccc3o2)cc(C(C)(C)C)n1CCCN1CCNCC1 [Compound I-126] | 4.5 | 
22 | Cc1c(-c2nc3ccccc3[nH]2)cc(C(C)(C)C)n1CCCN1CCOCC1 [Compound I-127] | 3.1 | 
23 | Cc1c(-c2nc3ccccc3[nH]2)cc(C(C)(C)C)n1CCCN1CCNCC1 [Compound I-128] | 5.4 | 
24 | CNCCCn1c(C(C)(C)C)cc(-c2nc3ccccc3[nH]2)c1C [Compound I-129] | 6.4 | 

Stronger by IC50, values ahead:

Row | IC50 [µM] | Ki [nM] | SMILES
25 | 0.045 | 21 | Cc1c(C(=O)Nc2cccc(C(F)(F)F)c2)cc(C2CCCCC2)n1CCCN1CCOCC1 [Compound I-072]
26 | 0.27 | 130 | Cc1c(C(=O)Nc2cccc(C(F)(F)F)c2)cc(C2CCN(C(=O)OCc3ccccc3)CC2)n1CCCN1CCOCC1 [Compound I-075]
27 | 1.1 | 380 | CCOC(=O)CCn1c(C(C)(C)C)cc(C(=O)Nc2cccc(C(F)(F)F)c2)c1C [Compound I-090]
28 | 1.5 | 560 | Cc1c(C(=O)Nc2cccc(C(F)(F)F)c2)cc(C(C)(C)C)n1CCC(=O)N1CCOCC1 [Compound I-091]
29 | 1.4 | 530 | Cc1c(C(=O)Nc2cccc(C(F)(F)F)c2)cc(C(C)(C)C)n1CCC(=O)N1CCNCC1 [Compound I-093]
30 | 0.97 | 380 | Cc1c(C(=O)Nc2cccc(C(F)(F)F)c2)cc(C(C)(C)C)n1CCS(=O)(=O)N1CCOCC1 [Compound I-095]
31 | 0.42 | 130 | CNC(C)CCn1c(C(C)(C)C)cc(C(=O)Nc2cccc(C(F)(F)F)c2)c1C (stereo not drawn) [Compound I-096]
32 | 0.43 | 130 | Cc1c(C(=O)Nc2cccc(C(F)(F)F)c2)cc(C(C)(C)C)n1CCC(C)N1CCOCC1 (stereo not drawn) [Compound I-097]
33 | 0.83 | 290 | CNCC(C)(C)Cn1c(C(C)(C)C)cc(C(=O)Nc2cccc(C(F)(F)F)c2)c1C [Compound I-100]
34 | 0.54 | 170 | Cc1c(C(=O)Nc2cccc(C(F)(F)F)c2)cc(C(C)(C)C)n1CC(C)(C)CN1CCOCC1 [Compound I-108]
35 | 1.4 | 450 | CNCC(F)(F)Cn1c(C(C)(C)C)cc(C(=O)Nc2cccc(C(F)(F)F)c2)c1C [Compound I-121]
36 | 0.78 | 240 | Cc1c(C(=O)Nc2cccc(C(F)(F)F)c2)cc(C(C)(C)C)n1CC(F)(F)CN1CCOCC1 [Compound I-122]
37 | 1.4 | 450 | Cc1c(C(=O)Nc2cccc(C(F)(F)F)c2)cc(C(C)(C)C)n1CC(C)(C)CN1CCNCC1 [Compound I-123]
38 | 0.26 |  | Cc1c(C(=O)Nc2cccc(C(F)(F)F)c2)cc(C(C)(C)C)n1CCC(C)N1CCNCC1 (stereo not drawn) [Compound I-124]
39 | 1.5 |  | Cc1c(C(=O)Nc2cccc(C(F)(F)F)c2)cc(C(C)(C)C)n1CC(F)(F)CN1CCNCC1 [Compound I-125]
